Laboratory results: publication PMC9200803, “Design, synthesis, and biological evaluation of tetrahydroquinolinones and tetrahydroquinolines with anticancer activity” (Scientific Reports, 2022)

Experiments:
[1] = test system: A-549 cells; assay: MTT cell viability assay, A-549; assay type: cell-based, human; conditions: MTT, 72 h, IC50 ± SD
Description: (§1) To evaluate the effects of the newly synthesized tetrahydroquinolin-2(1H)-one derivatives on cell viability, we treated human colon cancer cells HCT-116, human breast cancer cells MCF-7, and human non-small cell lung cancer cells A-549 with different concentrations of the compounds for 72 h. After incubation, the MTT (3-(4,5-dimethylthiazol-2-yl)-2,5-diphenyltetrazolium bromide) assay was performed and the cytotoxic potency of compounds (expressed in IC50) on the cells was determined in comparison to control cells treated with 1% of dimethyl sulfoxide (DMSO) (Table 1). […] We also compared the activity of 20d and 19b to the reference control drug Cisplatin, which is widely used in chemotherapy.
(§2) A-549 (CCL-185) and MCF-7 ([…]) cells were cultured in RPMI-1640 medium, while HCT-116 (CVCL-427), (hMLH1)-deficient (MMR^–) and hMLH1-proficient (MMR^+) RKO cells were cultured in McCoy’s 5A medium. The culture media were supplemented with 10% fetal bovine serum, 2 mM L-glutamine, and antibiotics (penicillin 62.6 µg/ml and streptomycin 40 µg/ml). Cultivation of cell lines was carried out at 37 °C under a humidified atmosphere containing 5% CO2, and the cultures were routinely screened for Mycoplasma contamination. A-549, MCF-7, and HCT-116 cells were obtained from American Type Culture Collection (ATCC), while RKO colon carcinoma cells were a kind gift of Dr Timothy Kinsella (Brown University, USA).
(§3) The viability of cells was determined in response to the newly synthesized compounds using the MTT (Sigma-Aldrich) assay. Briefly, cells were seeded into 96-well plates and allowed to attach overnight. Then, cells were exposed to various concentrations of compounds for 24, 48 or 72 h. Negative controls were treated with the same amount of DMSO solvent (1%). After treatment, the MTT solution (0.4 mg/ml) was added to each well and allowed to react with cells for 2–3 h at 37 °C. Next, the medium was removed, the formazan product formed was dissolved in 100 μl of DMSO, and the absorbance was determined at 540 nm using an ASYS UVM340 microplate reader (Biochrom Ltd.). The IC50 value, which represents the concentration of the compound required to inhibit cell growth by 50% compared to vehicle, was calculated using GraphPad Prism 8 software based on the curves plotting survival against dose averaged from at least three independent experiments.

[2] = test system: HCT-116 cells; assay: MTT cell viability assay, HCT-116; assay type: cell-based, human; conditions: 72 h; for IC50: MTT, IC50 ± SD; for cytotoxicity on tested cell lines: HCT-116, MCF-7, A-549, concentrations up to 50 µM
Description: as §1, §2, §3

[3] = test system: MCF-7 cells; assay: MTT cell viability assay, MCF-7; assay type: cell-based, human; conditions: IC50 ± SD
Description: as §1, §2, §3

[4] = test system: HEK293 cells; assay: MTT cell viability assay, HEK293; assay type: cell-based, human
[5] = Homo sapiens, HEK293, IC50 ± SD

Row | Compound | IC50 ([1]; Homo sapiens, A549) [µM] | IC50 ([2]; Homo sapiens, HCT-116, 72 h) [µM] | IC50 ([3]; Homo sapiens, MCF7, 72 h) [µM] | IC50 [4, 5] [µM] | melting point [°C] | cytotoxicity on tested cell lines [2] | IC50 [1] [µM] | IC50 [2] [µM] | IC50 ([3]; 72 h) [µM] | IC50 ([4]; IC50 ± SD) [µM]
1 | COc1cc(-c2ccccc2)c2c(n1)C(OC(=O)Nc1cccc(F)c1)CCC2 (centres unmarked) [Compound 19d, (2-methoxy-4-phenyl-5,6,7,8-tetrahydroquinolin-8-yl) N-(3-fluorophenyl)carbamate] | 41.1 ± 0.93 | 31.6 ± 0.58 | > 50 | > 50 | – | – | – | – | – | –
2 | O=C(Nc1ccc([N+](=O)[O-])cc1)OC1CCCc2c(-c3ccccc3)cc(=O)[nH]c21 (centres unmarked) [Compound 20b, (2-oxo-4-phenyl-5,6,7,8-tetrahydroquinolin-8-yl) N-(4-nitrophenyl)carbamate] | > 50 | > 50 | > 50 | > 50 | 225 to 227 | – | – | – | – | –
3 | O=C(Nc1ccc([N+](=O)[O-])cc1)OC1CCCc2c(-c3ccccc3)cc(Cl)nc21 (centres unmarked) [Compound 18b, (2-chloro-4-phenyl-5,6,7,8-tetrahydroquinolin-8-yl) N-(4-nitrophenyl)carbamate] | > 50 | > 50 | > 50 | > 50 | – | no cytotoxicity | – | – | – | –
4 | OC1CCCc2c(-c3ccccc3)cc(Cl)nc21 (centres unmarked) [Compound 16, 2-chloro-4-phenyl-5,6,7,8-tetrahydroquinolin-8-ol] | > 50 | > 50 | > 50 | > 50 | 88 to 90 | no cytotoxicity | – | – | – | –
5 | O=C(Nc1ccc(F)cc1)OC1CCCc2c(-c3ccccc3)cc(Cl)nc21 (centres unmarked) [Compound 18c, (2-chloro-4-phenyl-5,6,7,8-tetrahydroquinolin-8-yl) N-(4-fluorophenyl)carbamate] | 23.8 ± 4.02 | 18.9 ± 1.26 | > 50 | > 50 | 113 to 115 | – | – | – | – | –
6 | O=c1cc(-c2ccccc2)c2c([nH]1)CCCC2 [Compound 9, 4-phenyl-5,6,7,8-tetrahydro-1H-quinolin-2-one] | > 50 | > 50 | > 50 | > 50 | – | no cytotoxicity | – | – | – | –
7 | N.N.[Cl][Pt][Cl] [Cisplatin, reference compound] | – | – | – | – | – | – | 29.01 ± 0.12 | 24.9 ± 1.14 | 33.8 ± 1.56 | 28.4 ± 1.97
8 | O=C(Nc1ccc(Cl)cc1)OC1CCCc2c(-c3ccccc3)cc(=O)[nH]c21 (centres unmarked) [Compound 20e, (2-oxo-4-phenyl-5,6,7,8-tetrahydroquinolin-8-yl) N-(4-chlorophenyl)carbamate] | > 50 | > 50 | > 50 | > 50 | – | no cytotoxicity | – | – | – | –
9 | O=C(Nc1cccc(F)c1)OC1CCCc2c(-c3ccccc3)cc(Cl)nc21 (centres unmarked) [Compound 18d, (2-chloro-4-phenyl-5,6,7,8-tetrahydroquinolin-8-yl) N-(3-fluorophenyl)carbamate] | > 50 | > 50 | > 50 | > 50 | – | no cytotoxicity | – | – | – | –
10 | O=C(Nc1ccc(F)cc1)OC1CCCc2c(-c3ccccc3)cc(=O)[nH]c21 (centres unmarked) [Compound 20c, (2-oxo-4-phenyl-5,6,7,8-tetrahydroquinolin-8-yl) N-(4-fluorophenyl)carbamate] | 23.8 ± 4.02 | 18.4 ± 2.04 | > 50 | > 50 | – | – | – | – | – | –
11 | O=C(Nc1ccc(Cl)cc1)OC1CCCc2c(-c3ccccc3)cc(Cl)nc21 (centres unmarked) [Compound 18e, (2-chloro-4-phenyl-5,6,7,8-tetrahydroquinolin-8-yl) N-(4-chlorophenyl)carbamate] | 45.3 ± 4.2 | > 50 | > 50 | > 50 | – | – | – | – | – | –
12 | COc1cc(-c2ccccc2)c2c(n1)C(OC(=O)Nc1ccccc1)CCC2 (centres unmarked) [Compound 19a, (2-methoxy-4-phenyl-5,6,7,8-tetrahydroquinolin-8-yl) N-phenylcarbamate] | > 50 | 26.2 ± 1.69 | > 50 | > 50 | – | – | – | – | – | –
